# Source: patent publication US7521478B2, “Total synthesis of myriaporones” (Pharma Mar, S.A.U., priority 2002, dated 2009)
# Like-named read-outs stand apart in the source and are kept apart here.
# Assays:
# Format in all cases: cell-based
# SK-MEL-28 = experiment: Inhibition of cell growth by colorimetric SRB assay, MEL-28; conditions: Homo sapiens; for IC (total growth inhibition): read-out: TGI
# In short: (§1)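 Absorbance of solubilized bound SRB (490 nm) quantified cell growth and viability after cells were exposed to compound for 48 h. Seeding was 5×10^3 cells per well in RPMI 1640/10% FBS, with 18 h attachment beforehand. GI, TGI and LC were calculated from means of triplicate wells.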
# HeLa = experiment: Inhibition of cell growth by colorimetric SRB assay, HELA; conditions: Homo sapiens; for IC (total growth inhibition): read-out: TGI
# In short: as §1
# LoVo = experiment: Inhibition of cell growth by colorimetric SRB assay, LOVO; conditions: Homo sapiens; for LC50: read-out: LC50; for IC (total growth inhibition): read-out: TGI
# In short: as §1
# SK-BR-3 = experiment: Inhibition of cell growth by colorimetric SRB assay, SK-BR-3; conditions: for CC50 / GI50: Homo sapiens; for TGI: total growth inhibition
# In short: as §1
# A-549 = experiment: Inhibition of cell growth by colorimetric SRB assay, A-549; conditions: Homo sapiens; for IC (total growth inhibition): read-out: TGI
# In short: as §1
# DU-145 = experiment: Inhibition of cell growth by colorimetric SRB assay, DU-145; conditions: Homo sapiens; for IC (total growth inhibition): read-out: TGI
# In short: as §1
# IGROV-ET = experiment: Inhibition of cell growth by colorimetric SRB assay, IGROV-ET; conditions: Homo sapiens; for IC (total growth inhibition): read-out: TGI
# In short: as §1
# IGROV = experiment: Inhibition of cell growth by colorimetric SRB assay, IGROV; conditions: Homo sapiens; for IC (total growth inhibition): read-out: TGI
# In short: as §1
# K-562 = experiment: Inhibition of cell growth by colorimetric SRB assay, K-562; conditions: Homo sapiens; for IC (total growth inhibition): read-out: TGI
# In short: as §1
# HT-29 = experiment: Inhibition of cell growth by colorimetric SRB assay, HT-29; conditions: Homo sapiens; for IC (total growth inhibition): read-out: TGI
# In short: as §1
# HeLa-APL = experiment: Inhibition of cell growth by colorimetric SRB assay, HELA-APL; conditions: Homo sapiens
# In short: as §1
# LoVo-Dox = experiment: Inhibition of cell growth by colorimetric SRB assay, LOVO-DOX; conditions: Homo sapiens; for LC50 (concentration for 50% cell killing): read-out: LC50; for IC (total growth inhibition): read-out: TGI
# In short: as §1
# LNCaP = experiment: Inhibition of cell growth by colorimetric SRB assay, LN-caP; conditions: Homo sapiens; for IC (total growth inhibition): read-out: TGI
# In short: as §1
# PANC-1 = experiment: Inhibition of cell growth by colorimetric SRB assay, PANC-1; conditions: Homo sapiens; for IC (total growth inhibition): read-out: TGI
# In short: as §1
# [1] = SK-MEL-28, MEL-28, 48 hours exposure
structure (smiles),measurement,setting,value
C=C(C(=O)[C@H](COC(C)=O)[C@H](O)C1(C)O[C@@H]1[C@@H](C)/C=C\C)[C@@H](O)CC(=O)CC (stereo partly drawn) [Compound 1],CC50,"SK-MEL-28; SK-MEL-28, 48 h, read-out: LC50",13.6 µM
same,GI50,SK-MEL-28; [1],2.72 µM
same,IC (total growth inhibition),SK-MEL-28; [1],6.1 µM
same,CC50,"HeLa; HeLa, 48 h, read-out: LC50",20.5 µM
same,GI50,"HeLa; HELA, 48 hours exposure",1.99 µM
same,IC (total growth inhibition),"HeLa; HELA, 48 hours exposure",6.66 µM
same,LC50,"LoVo; LoVo, 48 h",12.6 µM
same,GI50,"LoVo; LOVO, 48 hours exposure",1.62 µM
same,IC (total growth inhibition),"LoVo; LOVO, 48 hours exposure",4.87 µM
same,CC50,"SK-BR-3; SK-BR-3, 48 h, read-out: LC50",3.43 µM
same,GI50,"SK-BR-3; SK-BR-3, 48 hours exposure",0.469 µM
same,TGI,"SK-BR-3; SK-BR-3, 48 hours exposure",1.11E−05 Molar
same,CC50,"A-549; A549, 48 h, read-out: LC50",23.5 µM
same,GI50,"A-549; A549, A-549, 48 hours exposure",1.1 µM
same,IC (total growth inhibition),"A-549; A549, A-549, 48 hours exposure",5.04 µM
same,CC50,"DU-145; DU-145, 48 h, read-out: LC50",≥ 25.2 µM
same,GI50,"DU-145; DU-145, 48 hours exposure",3.66 µM
same,IC (total growth inhibition),"DU-145; DU-145, 48 hours exposure",10.2 µM
same,CC50,"IGROV-ET; 48 h, read-out: LC50",23.7 µM
same,GI50,"IGROV-ET; IGROV-ET, 48 hours exposure",3.1 µM
same,IC (total growth inhibition),"IGROV-ET; IGROV-ET, 48 hours exposure",8.58 µM
same,CC50,"IGROV; 48 h, read-out: LC50",17.6 µM
same,GI50,IGROV; 48 hours exposure,1.63 µM
same,IC (total growth inhibition),IGROV; 48 hours exposure,5.67 µM
same,CC50,"K-562; K562, 48 h, read-out: LC50",24.6 µM
same,GI50,"K-562; K562, K-562, 48 hours exposure",1.99 µM
same,IC (total growth inhibition),"K-562; K562, K-562, 48 hours exposure",7.36 µM
same,CC50,"HT-29; HT-29, 48 h, read-out: LC50",13.4 µM
same,GI50,"HT-29; HT-29, 48 hours exposure",1.67 µM
same,IC (total growth inhibition),"HT-29; HT-29, 48 hours exposure",5.37 µM
same,GI50,HeLa-APL; 48 h,1.72 µM
same,IC (total growth inhibition),"HeLa-APL; 48 h, read-out: TGI",6.23 µM
same,LC50 (concentration for 50% cell killing),LoVo-Dox; 48 h,21.1 µM
same,GI50,"LoVo-Dox; LOVO-DOX, 48 hours exposure",3.13 µM
same,IC (total growth inhibition),"LoVo-Dox; LOVO-DOX, 48 hours exposure",8.1 µM
same,CC50,"LNCaP; 48 h, read-out: LC50",≥ 25.2 µM
same,GI50,"LNCaP; LN-caP, 48 hours exposure",1.45 µM
same,IC (total growth inhibition),"LNCaP; LN-caP, 48 hours exposure",6.31 µM
same,CC50,"PANC-1; PANC-1, 48 h, read-out: LC50",21.3 µM
same,GI50,"PANC-1; PANC-1, 48 hours exposure",3.33 µM
same,IC (total growth inhibition),"PANC-1; PANC-1, 48 hours exposure",8.4 µM
C/C=C\[C@H](C)[C@H]1OC1(C)[C@@H](O[Si](C)(C)C(C)(C)C)[C@@H](CO[Si](C)(C)C(C)(C)C)C(=O)[C@H](CO[Si](C)(C)C(C)(C)C)[C@H](CC(=O)CC)O[Si](C)(C)C(C)(C)C (stereo partly drawn) [Compound 19a],GI50,SK-MEL-28; [1],12.1 µM
same,CC50,"SK-MEL-28; SK-MEL-28, MEL-28, 48 hours exposure, cell killing, read-out: LC50 (the source's name)",12.1 µM
same,IC (total growth inhibition),SK-MEL-28; [1],12.1 µM
same,GI50,"HeLa; HELA, 48 hours exposure",12.1 µM
same,CC50,"HeLa; HELA, 48 hours exposure, cell killing, read-out: LC50 (the source's name)",12.1 µM
same,IC (total growth inhibition),"HeLa; HELA, 48 hours exposure",12.1 µM
same,GI50,"LoVo; LOVO, 48 hours exposure",12.1 µM
same,LC50,"LoVo; LOVO, 48 hours exposure, cell killing",12.1 µM
same,IC (total growth inhibition),"LoVo; LOVO, 48 hours exposure",12.1 µM
same,GI50,"SK-BR-3; SK-BR-3, 48 hours exposure",12.1 µM
same,CC50,"SK-BR-3; SK-BR-3, 48 hours exposure, cell killing, read-out: LC50 (the source's name)",12.1 µM
same,TGI,"SK-BR-3; SK-BR-3, 48 hours exposure",1.21E−05 Molar
same,GI50,"A-549; A549, A-549, 48 hours exposure",12.1 µM
same,CC50,"A-549; A549, A-549, 48 hours exposure, cell killing, read-out: LC50 (the source's name)",12.1 µM
same,IC (total growth inhibition),"A-549; A549, A-549, 48 hours exposure",12.1 µM
same,GI50,"DU-145; DU-145, 48 hours exposure",12.1 µM
same,CC50,"DU-145; DU-145, 48 hours exposure, cell killing, read-out: LC50 (the source's name)",12.1 µM
same,IC (total growth inhibition),"DU-145; DU-145, 48 hours exposure",12.1 µM
same,GI50,"IGROV-ET; IGROV-ET, 48 hours exposure",12.1 µM
same,CC50,"IGROV-ET; IGROV-ET, 48 hours exposure, cell killing, read-out: LC50 (the source's name)",12.1 µM
same,IC (total growth inhibition),"IGROV-ET; IGROV-ET, 48 hours exposure",12.1 µM
same,GI50,IGROV; 48 hours exposure,12.1 µM
same,CC50,"IGROV; 48 hours exposure, cell killing, read-out: LC50 (the source's name)",12.1 µM
same,IC (total growth inhibition),IGROV; 48 hours exposure,12.1 µM
same,GI50,"K-562; K562, K-562, 48 hours exposure",12.1 µM
same,CC50,"K-562; K562, K-562, 48 hours exposure, cell killing, read-out: LC50 (the source's name)",12.1 µM
same,IC (total growth inhibition),"K-562; K562, K-562, 48 hours exposure",12.1 µM
same,GI50,"HT-29; HT-29, 48 hours exposure",12.1 µM
same,CC50,"HT-29; HT-29, 48 hours exposure, cell killing, read-out: LC50 (the source's name)",12.1 µM
same,IC (total growth inhibition),"HT-29; HT-29, 48 hours exposure",12.1 µM
same,CC50,"HeLa-APL; HELA-APL, 48 hours exposure, cell killing, read-out: LC50 (the source's name)",12.1 µM
same,GI50,"LoVo-Dox; LOVO-DOX, 48 hours exposure",12.1 µM
same,LC50 (concentration for 50% cell killing),"LoVo-Dox; LOVO-DOX, 48 hours exposure, cell killing",12.1 µM
same,IC (total growth inhibition),"LoVo-Dox; LOVO-DOX, 48 hours exposure",12.1 µM
same,GI50,"LNCaP; LN-caP, 48 hours exposure",12.1 µM
same,CC50,"LNCaP; LN-caP, 48 hours exposure, cell killing, read-out: LC50 (the source's name)",12.1 µM
same,IC (total growth inhibition),"LNCaP; LN-caP, 48 hours exposure",12.1 µM
same,GI50,"PANC-1; PANC-1, 48 hours exposure",12.1 µM
same,CC50,"PANC-1; PANC-1, 48 hours exposure, cell killing, read-out: LC50 (the source's name)",12.1 µM
same,IC (total growth inhibition),"PANC-1; PANC-1, 48 hours exposure",12.1 µM
